Test results: paper PMC12020424, “Identification and Validation of Cyclic Peptides with Mucin-Selective, Location-Specific Binding in the Gastrointestinal Tract” (ACS Nano, 2025)
Values joined by “and” are separate entries in the source; they are usually repeats but may differ in a detail not shown here. Equal entries are not always repeated. Where two headings read alike, the source gives them in different places. Bridge positions count the residues as written; N and C are the ends. Peptide text beside a SMILES is read from it.

What was measured:
[1] = molecular target: MUC2 (Homo sapiens, UniProt Q02817); assay: Biolayer interferometry binding kinetics, MUC2; conditions: Octet RED96, biotinylated MUC2 on streptavidin sensor; for Kd: PBS pH 7.2, koff/kon, read-out: dissociation constant kd; for kon: PBS pH 7.2, association 300 s, dissociation 300 s
Protocol: (§1) Binding kinetics for the successful mucin-binding hits were measured using biolayer interferometry (BLI).[73] In BLI, a protein target is immobilized on the surface of a biosensor, creating a thin optical layer. These coated sensors are then exposed to a solution of the ligand (in this case, the small molecule and peptide hits), allowing the ligand to associate and dissociate with the protein target. This association/dissociation behavior changes the thickness of the optical layer, and the instrument correlates this change in thickness with binding and desorption. By testing different concentrations of the ligand, the kinetic rate constants and dissociation constant (kd) can be measured by fitting the resulting binding curves according to a binding model.[73]
(§2) For the analysis of mucin-binding kinetics, mucins MUC2 and MUC5AC were used as the protein targets, and the “hits” were used as the ligands of interest. Mucins were biotinylated and suspended in buffers with different pH levels (MUC2 in PBS with pH 7.2 and PBS-HCl with pH 3.35, MUC5AC in PBS-HCl with pH 1.82) that mimic the pH of the normal small intestine,[74] the small intestine during inflammatory bowel disease,[75] and the normal stomach,[76] respectively. Hits were dissolved in the same buffer to minimize the optical differences among the buffer, mucin solution, and analyte solution. BLI was carried out on an Octet RED96 platform in five steps. First, a baseline step of 60 s was carried out. Then, biotinylated mucins were immobilized onto the surface of a streptavidin sensor during a loading step of 300 s. Next, the loaded tips were allowed to re-equilibrate in another baseline step for 60 s. Following that, the loaded tips were allowed to incubate in a solution of analyte (an association step) for 300 s; this allowed the hits to interact with the mucin, changing the thickness of the optical layer and generating a response from the optical measurement. Finally, the tips were moved to buffer wells, and the hits were allowed to dissociate from the mucin for 300 s. Data were analyzed, and ligand-only and hit-only controls were used as references to properly characterize the binding performance of the hits.
(§3) Binding of the hits to the mucins generally follows one of two different mechanisms. The first is a 1:1 bimolecular model in which the molecule binds to a specific spot on the mucin. The reaction can, therefore, be described using the following model:[77] [drawing 3]
(§4) In this model, kon represents the rate of association of the hit to the mucin, while koff represents the rate of dissociation of the molecule from the molecule-mucin complex. The dissociation constant is calculated as the ratio of these two rate constants.
(§5) The second model is a 2:1 heterogeneous model, in which the molecule binds at two locations on the mucin (each with its own kinetic rate constants and dissociation constant).[78] These reactions are described using the following model: [drawing 4]
(§6) The rate constants for each interaction are equivalent to those of the single interaction present in the 1:1 model, while each interaction has its own dissociation constant. This was calculated similarly to the 1:1 model.

[2] = molecular target: MUC5AC (Homo sapiens, UniProt P98088); assay: Biolayer interferometry binding kinetics, MUC5AC; conditions: for Kd: PBS-HCl pH 1.82, koff/kon, read-out: dissociation constant kd
Protocol: as §1, §2, §3, §4, §5, §6

[3] = system: MUC2-containing intestinal tissue (jejunal); assay: Ex vivo fluorescent binding to small intestine tissue; parameters: species or system porcine; conditions: MUC2-selective peptides to small intestine, scaled between free AF647 (0) and WGA-AF647 (1), mean across trials n = 3
Text: (§7) After identifying the peptide hits for each mucin, we tested their binding in an ex vivo setting (Figure S1), evaluating their interaction with mucin-containing porcine tissue and semiquantitatively representing it through fluorescent imaging (Figure 3a). The cyclic peptides were synthesized and conjugated to a fluorophore, Alexa Fluor 647 (AF647), at the N-terminus to allow fluorescent imaging to be used to semiquantitatively measure the peptides’ ex vivo tissue binding, compared to free AF647 and AF647 conjugated to wheat germ agglutinin (WGA), a known lectin for glycoproteins.[40] […] Porcine GI tissue was used due to its similarity in mucin expression compared to human GI tissue and its capacity to source large surface areas of tissue for experiments.[41],[42] Representative IVIS images are shown in Figure 3b-e, where the first four columns represent the four identified peptides (M2.1–M2.4 in Figure 3b,c, M5.1–M5.4 in Figure 3d,e), the fifth column represents WGA-AF647, and the sixth column represents AF647. The “score” results for the peptide ligands are presented in Figure 3f,g for the mucins of interest, with Tables S2–S5 and Figure S3 detailing results for the other tissues (the equation for calculating the “score” is found in the Materials and Methodssection). […] We also examined selectivity by incubating peptides on nontarget tissues. Figure 3h,i depicts the “selectivity” results for the MUC2-selective and MUC5AC-selective peptides, respectively. Selectivity was calculated by determining the ratio of the “score” for a particular mucin to the sum of the “scores” for all mucins (see the Materials and Methods section for the equation used).
(§8) The top-performing hits from phage display were tested on ex vivo segments of porcine mucin-containing tissues (jejunal, stomach, and esophageal tissues) obtained from local abattoirs or laboratory-maintained pigs. Tissue was used either immediately after acquisition or after storage at −80 °C; tissue was used at most 1 week after acquisition and storage at −80 °C. After acquisition and equilibration to room temperature, the tissue was washed twice with 25 mL (each) of cold 1× PBS to remove undigested food and other debris. After washing and cleaning, the tissue was mounted between two magnetic plates with holes corresponding to a 48-well plate, as previously described,[72] such that the luminal side of the tissue was facing up (Figure S1). After the tissue was mounted, the amount of peptide/protein corresponding to 40 μg of AF647 was suspended in 200 μL of 1× PBS and added to the wells created by the magnetic plates. This was done 3× for each formulation to perform the experiment in triplicate. In addition, plain 1× PBS was added to one well to serve as the background measurement. After the peptides were added, the plate setup was covered with aluminum foil and allowed to incubate for 1 h at room temperature with gentle agitation (50 rpm). After incubation, the nonbinding peptides were removed by pouring out the solutions onto a clean paper towel, and the setup was washed three times by adding 200 μL of 1× PBS to each well and gently agitating the setup for 30 s before removing the washing solution. After washing was complete, fluorescence imaging was performed using an IVIS Spectrum fluorescent imaging system (PerkinElmer), with an automatically calculated exposure time (usually ∼1 s), a 20 cm × 20 cm field of view, and an excitation/emission of 640/680 nm, respectively. The imaging results were analyzed using Living Image software to calculate the total fluorescence intensity for each well, and the results for each hit or control were averaged across different wells. The negative control used was unconjugated AF647, while the positive control was WGA-AF647, since WGA is a known lectin that binds glycoproteins.
(§9) To better account for tissue-to-tissue variability, the results for each trial were reported as scores rather than using the raw fluorescence intensity. […]

[4] = system: MUC5AC-containing stomach tissue; assay: Ex vivo fluorescent binding to stomach tissue; parameters: species or system porcine; conditions: MUC5AC-selective peptides to stomach, scaled between free AF647 (0) and WGA-AF647 (1), mean across trials n = 3
Text: as §7
as §8, with “After the peptides were added, the plate setup was covered with aluminum foil and allowed to incubate for 1 h at room temperature with gentle agitation (50 rpm). After incubation, the nonbinding peptides were removed by pouring out the solutions onto a clean paper towel, and the setup was washed three times by adding 200 μL of 1× PBS to each well and gently agitating the setup for 30 s before removing the washing solution.” left out, “The negative control used was unconjugated AF647, while the positive control was WGA-AF647, since WGA is a known lectin that binds glycoproteins.” left out
as §9

[5] = BLI, Octet RED96, biotinylated MUC5AC on streptavidin sensor

Kd ([1]; BLI) [nM] | Kd [2, 5] [nM] | Molecule | further results
7.11 | 65.4 | C[C@@H]1NC(=O)[C@H](CCCNC(=N)N)NC(=O)[C@H](CC(=O)O)NC(=O)[C@@H]2CCCN2C(=O)[C@H](CCCNC(=N)N)NC(=O)CNC(=O)[C@H](CC(=O)O)NC(=O)[C@@H](N)CSSC[C@@H](C(=O)O)NC1=O [Peptide M2.3] (H-CDGRPDRAC-OH; disulfide 1-9) | –
112 | – | CC(C)C[C@@H]1NC(=O)[C@H](CO)NC(=O)[C@H](CO)NC(=O)[C@H](C)NC(=O)[C@@H](N)CSSC[C@@H](C(=O)O)NC(=O)[C@H](CCCNC(=N)N)NC(=O)[C@H](C(C)C)NC(=O)[C@H](CO)NC1=O [Peptide M2.4] (H-CASSLSVRC-OH; disulfide 1-9) | kon ([1]; pH 7.2, BLI, read-out: kon): 57700 M⁻¹ s⁻¹; kon ([2]; pH 1.82, BLI, Octet RED96, biotinylated MUC5AC on streptavidin sensor, PBS-HCl pH 1.82, association 300 s, dissociation 300 s): 29500 M⁻¹ s⁻¹
112 | 7.88 | CC[C@H](C)[C@@H]1NC(=O)[C@@H]2CCCN2C(=O)CNC(=O)[C@@H](N)CSSC[C@@H](C(=O)O)NC(=O)[C@H](CC(C)C)NC(=O)[C@H](C)NC(=O)[C@H]([C@@H](C)O)NC(=O)[C@H](Cc2ccc(O)cc2)NC1=O [Peptide M5.2] (H-CGPIYTALC-OH; disulfide 1-9) | kd for MUC5AC binding compared with MUC2 binding (stronger) ([2]; BLI, MUC5AC pH 1.82 vs MUC2): 2 orders of magnitude
– | 1.54 | CSCC[C@@H]1NC(=O)CNC(=O)[C@H](CCSC)NC(=O)[C@H]([C@@H](C)O)NC(=O)[C@H](CC(C)C)NC(=O)[C@H](C)NC(=O)[C@H]([C@@H](C)O)NC(=O)[C@@H](N)CSSC[C@@H](C(=O)O)NC1=O [Peptide M5.3] (H-CTALTMGMC-OH; disulfide 1-9) | kon ([1]; BLI): 6.33 × 10^4 M^–1s^–1 and ~10^4 M^–1s^–1
– | – | Alexa Fluor 647 [Free dye, reference compound] | Overall nanoparticle “score” [3]: 0; Overall nanoparticle “score” [4]: 0
